Assay results reported in paper PMC11570497 (Nature Plants, 2024).
“Also recorded” adds a separate entry of the source. Where no end group is shown, it is not given here. The star is where a group is joined. Dabcyl = CN(C)c1ccc(N=Nc2ccc(C(=O)*)cc2)cc1; EDANS = O=S(=O)(O)c1cccc2c(NCCN*)cccc12

Columns and labels:
SBT5.2a–His = format: biochemical, Nicotiana benthamiana; details: different concentrations of SBT5.2a–His; 100 nM csp22; 45 minutes; read-out ROS burst on six-week-old leaf discs; n = 6
Experimental: Four-week-old N. benthamiana leaves were infiltrated with a 1:1 mixture (final OD600 = 0.5 for each) of A. tumefaciens GV3101 containing the silencing suppressor P19 and pPB097 or pJP008. AF containing SBT5.2a–His or P69B–His was extracted six days after infiltration and purified as previously described[44],[45].
The ROS burst assay was performed as previously described[43] except that L-012 (Wako Chemical) was used instead of luminol and the diameter of leaf discs used here was 4 mm rather than 6 mm. Briefly, after incubation in water overnight, one leaf disc (4 mm in diameter) was added to 100 µl of solution containing 25 ng µl^−1 L-012, 25 ng µl^−1 HRP and specified elicitor treatments. […] After incubation, 25 ng µl^−1 L-012 and 25 ng µl^−1 HRP were added to the AFs. Chemiluminescence was measured immediately with an Infinite M200 plate reader (Tecan) every minute for one hour.

[1] = n = 8
[2] = AF from WT N. benthamiana; details: Nicotiana benthamiana, room temperature, up to 60 min
[3] = tested on: leaf discs of N. benthamiana; format: cell-based, Nicotiana benthamiana; details: n = 6
P69B–His = assay: purified P69B–His; details: tomato, 21 °C, up to 20 min
[4] = AF of sbt5.2 mutant plants; details: Nicotiana benthamiana, 21 °C, up to 20 min

In the case of LNGKVKWFNNAKGYGFILEDGK [csp22], the “inactivation of csp22 elicitor activity by purified SBT5.2a–His” value (SBT5.2a–His) is reported as “dose-dependent inactivation”.

For “QTGTVKWFNDEKGFGFITPQSG [csp22 PSPTO4145]”, the “speed of inactivation/degradation in AF of WT plants” value [1] was “slower than that of CspD”.

In the case of “MLNGKVKWFNNAKGYGFILEDGKPDEDLFAHYSAIQMDGYKTLKAGQPVRFEIIQGPKGLHAVNIQSSLAKIGEPVKSAHAHTPEHAHA”, the cleaved bond [2] is reported as “F-N, first_seen, 15 min; also recorded: L-K, first_seen, 15 min”.

In the case of O=S(=O)(F)Cc1ccccc1 [PMSF], the “block of CspD perception (ROS burst) by subtilase inhibitor” value [3] is reported as “unable to block CspD perception”.

In the case of Dabcyl-VKWFNNAK-{EDANS}, the not cleaved (P69B–His) is reported as “not cleaved by purified P69B–His” and the not cleaved [4] is reported as “no longer cleaved in AF of sbt5.2 mutants”.

For “DTGTVKWFNTSKGFGFISRDSG [csp22 PSPTO3984]”, the “speed of inactivation/degradation in AF of WT plants” value [1] was “more quickly degraded than that of CspD”.
